# According to patent US20250171463A1 (BIOGEN MA INC., priority 2022, published 2025):
# Biological target: T1, EBP (Homo sapiens, UniProt Q15125)
# T1 construct: HEK293T cells were utilized as the source of EBP enzyme; endogenous in cells; host or cells: HEK293T
# Test: EBP Functional Assay (EBP immunoaffinity LC-MS assay)
# Type: biochemical
# Conditions: EBP enzyme from HEK293T cells; 30 min with inhibitor, then zymosterol-d5, 37° C., 4 h; percent conversion to dehydrolathosterol-d5 by LC-APCI MRM MS
# Protocol: The EBP immunoaffinity (IA) LC-MS assay measures the potency of small molecule inhibitors of EBP by quantifying their concentration-dependent changes in the enzyme's substrate and product using liquid chromatography atmospheric pressure chemical ionization multiple reaction monitoring mass spectrometry (LC-APCI MRM MS). HEK293T cells were utilized as the source of EBP enzyme. The enzyme was incubated with the small molecule inhibitors at variable concentrations for 30 min. Deuterated form of EBP substrate, zymosterol-d5 (Avanti Polar Lipids, Cat #700068P-1 mg), was then added and the plate was incubated at 37° C. for 4 h. Finally, the sterol isomers were extracted and injected to LC-APCI MRM MS. MRM transition used for the quantification for both zymosterol and […] (substrate and product of EBP enzymatic reaction, respectively) is 372.3-203.2, CE 30 and DP 80 in positive ion mode. Percent conversion of the zymosterol-d5 to dehydrolathosterol-d5 was used to derive IC50 curves. Tasin-1 (1′-[(4-Methoxyphenyl)sulfonyl]-4-methyl-1,4′-bipiperidine, CAS 792927-06-1) was used as the reference small molecule inhibitor.
# Percent conversion versus the compound concentration data were fit to the following 4-parameter logistic model to generate IC50 curves: […]
# T1 sequence (Q15125 whole entry): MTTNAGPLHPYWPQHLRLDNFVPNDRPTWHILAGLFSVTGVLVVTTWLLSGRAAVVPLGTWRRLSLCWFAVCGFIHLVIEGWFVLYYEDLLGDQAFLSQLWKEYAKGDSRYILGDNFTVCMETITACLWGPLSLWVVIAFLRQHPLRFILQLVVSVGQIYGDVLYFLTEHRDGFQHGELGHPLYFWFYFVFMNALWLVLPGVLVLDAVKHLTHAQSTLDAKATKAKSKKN
row,SMILES,IC50 [nM]
1,"CCc1cc(C(F)(F)F)ncc1S(=O)(=O)N1CC2(CN(CC3CCOCC3)C2)C1 [Example 126, 2-((4-ethyl-6-(trifluoromethyl)pyridin-3-yl)sulfonyl)-6-((tetrahydro-2H-pyran-4-yl)methyl)-2,6-diazaspiro[3.3]heptane]",250 to 4000
2,"O=S(=O)(c1ccc(Cl)nc1C(F)(F)F)N1CC2(CN(C3CCOCC3)C2)C1 [Example 213, 2-((6-chloro-2-(trifluoromethyl)pyridin-3-yl)sulfonyl)-6-(tetrahydro-2H-pyran-4-yl)-2,6-diazaspiro[3.3]heptane]",100 to 250
3,"Cc1cc(C(F)(F)F)nc(C)c1S(=O)(=O)N1CC2(CN(C3CC4(COC4)C3)C2)C1 [Example 101, 2-((2,4-dimethyl-6-(trifluoromethyl)pyridin-3-yl)sulfonyl)-6-(2-oxaspiro[3.3]heptan-6-yl)-2,6-diazaspiro[3.3]heptane]",100 to 250
4,"COC(C)(C)CN1[C@@H]2CC[C@H]1CC1(C2)CN(S(=O)(=O)c2ccc(OC(F)F)cc2)C1 [Example 64, (1′R,5′S)-1-((4-(Difluoromethoxy)phenyl)sulfonyl)-8′-(2-methoxy-2-methylpropyl)-8′-azaspiro[azetidine-3,3′-bicyclo[3.2.1]octane]]",250 to 4000
5,Cc1nc(C(F)(F)F)ccc1S(=O)(=O)N1CC2(CN(C(C)C3(C)CCOCC3)C2)C1 (centres unmarked) [Example 131],100 to 250
6,COCCCCCN1CC2(C1)CN(S(=O)(=O)c1ccc(C(F)(F)F)nc1C)C2 [Example 179],100 to 250
7,"Cc1ccc(S(=O)(=O)N2CCC3(CC2)CN(C2CCOCC2)C3)c(C)c1 [Example 31, 7-((2,4-Dimethylphenyl)sulfonyl)-2-(tetrahydro-2H-pyran-4-yl)-2,7-diazaspiro[3.5]nonane]",250 to 4000
8,"O=S(=O)(c1ccc(OC(F)F)cc1)N1CCO[C@@]2(CCN([C@H]3CCCOC3)C2)C1 (racemic) [Example 8, (±)—(R)-9-((4-(Difluoromethoxy)phenyl)sulfonyl)-2-((S)-tetrahydro-2H-pyran-3-yl)-6-oxa-2,9-diazaspiro[4.5]decane]",250 to 4000
9,Cc1nn(C)c(S(=O)(=O)N2CC3(CN(C4CCOCC4)C3)C2)c1C(F)F [Example 49],100 to 250
10,"CC1(CN2CCC3(CC2)CN(S(=O)(=O)c2cc(F)cc(F)c2)CCO3)COC1 [Example 29, 4-((3,5-Difluorophenyl)sulfonyl)-9-((3-methyloxetan-3-yl)methyl)-1-oxa-4,9-diazaspiro[5.5]undecane]",100 to 250
11,"Cn1nc(C(F)(F)F)cc1S(=O)(=O)N1CC2(CN(CC3COC3)C2)C1 [Example 218, 2-((1-methyl-3-(trifluoromethyl)-1H-pyrazol-5-yl)sulfonyl)-6-(oxetan-3-ylmethyl)-2,6-diazaspiro[3.3]heptane]",100 to 250
12,"O=S(=O)(c1c(F)cc(OC(F)F)cc1F)N1CC2(CN(CC3CCOCC3)C2)C1 [Example 225, 2-((4-(difluoromethoxy)-2,6-difluorophenyl)sulfonyl)-6-((tetrahydro-2H-pyran-4-yl)methyl)-2,6-diazaspiro[3.3]heptane]",250 to 4000
13,Cn1nc(C2CC2)cc1S(=O)(=O)N1CC2(CCN(C3CCOCC3)C2)C1 [Example 59],100 to 250
14,"Cn1nc(C(F)(F)F)cc1S(=O)(=O)N1CC2(CN(C3CCOCC3)C2)C1 [Example 46, 2-((1-Methyl-3-(trifluoromethyl)-1H-pyrazol-5-yl)sulfonyl)-6-(tetrahydro-2H-pyran-4-yl)-2,6-diazaspiro[3.3]heptane]",100 to 250
15,Cc1nc(C(F)(F)F)ccc1S(=O)(=O)N1CC2(CN(C3CCCOC3)C2)C1 (centres unmarked) [Example 151],250 to 4000
16,"Cn1nc(C(C)(F)F)cc1S(=O)(=O)N1CC2(CN(CC3CCOCC3)C2)C1 [Example 210, 2-((3-(1,1-difluoroethyl)-1-methyl-1H-pyrazol-5-yl)sulfonyl)-6-((tetrahydro-2H-pyran-4-yl)methyl)-2,6-diazaspiro[3.3]heptane]",100 to 250
17,"Cn1nc(C2CC2)cc1S(=O)(=O)N1CC2(CN(CC3CCOCC3)C2)C1 [Example 219, 2-((3-cyclopropyl-1-methyl-1H-pyrazol-5-yl)sulfonyl)-6-((tetrahydro-2H-pyran-4-yl)methyl)-2,6-diazaspiro[3.3]heptane]",100 to 250
18,"Cc1ccc(S(=O)(=O)N2CCC3(CC2)CN(CC2CCOCC2)C3)c(C)c1 [Example 35, 7-((2,4-Dimethylphenyl)sulfonyl)-2-((tetrahydro-2H-pyran-4-yl)methyl)-2,7-diazaspiro[3.5]nonane]",< 100
19,"O=S(=O)(c1ccc(OC(F)F)cc1F)N1CC2(CN(CC3CCOCC3)C2)C1 [Example 226, 2-((4-(difluoromethoxy)-2-fluorophenyl)sulfonyl)-6-((tetrahydro-2H-pyran-4-yl)methyl)-2,6-diazaspiro[3.3]heptane]",250 to 4000
20,"CC1(C)CC(N2CCC3(CC2)CN(S(=O)(=O)c2ccc(OC(F)F)cc2)CCO3)CCO1 (centres unmarked) [Example 21, 4-((4-(Difluoromethoxy)phenyl)sulfonyl)-9-(2,2-dimethyltetrahydro-2H-pyran-4-yl)-1-oxa-4,9-diazaspiro[5.5]undecane]",250 to 4000
21,"O=S(=O)(c1cc(C(F)(F)F)nn1CC1CC1)N1CC2(CN(C3CCOCC3)C2)C1 [Example 65, 2-((1-(cyclopropylmethyl)-3-(trifluoromethyl)-1H-pyrazol-5-yl)sulfonyl)-6-(tetrahydro-2H-pyran-4-yl)-2,6-diazaspiro[3.3]heptane]",250 to 4000

# Other lines, results leading:
row,IC50 [nM],SMILES
1,< 100,"Cn1nc(C(F)(F)F)cc1S(=O)(=O)N1CC2(CN(CC3CCOC3)C2)C1 (racemic) [Example 197, rac-2-((1-Methyl-3-(trifluoromethyl)-1H-pyrazol-5-yl)sulfonyl)-6-((tetrahydrofuran-3-yl)methyl)-2,6-diazaspiro[3.3]heptane]"
2,< 100,"Cc1nc(C(C)(C)F)ccc1S(=O)(=O)N1CC2(CN(C3CCOCC3)C2)C1 [Example 93, 2-((6-(2-fluoropropan-2-yl)-2-methylpyridin-3-yl)sulfonyl)-6-(tetrahydro-2H-pyran-4-yl)-2,6-diazaspiro[3.3]heptane]"
3,< 100,"Cc1nc(C(F)(F)F)ccc1S(=O)(=O)N1CC2(CN(C3(C)CCOCC3)C2)C1 [Example 77, 2-((2-methyl-6-(trifluoromethyl)pyridin-3-yl)sulfonyl)-6-(4-methyltetrahydro-2H-pyran-4-yl)-2,6-diazaspiro[3.3]heptane]"
4,< 100,"Cc1nc(C(F)(F)F)ccc1S(=O)(=O)N1CC2(C1)CN([C@H]1C[C@]3(CCO3)C1)C2 [Example 70, 2-((2-methyl-6-(trifluoromethyl)pyridin-3-yl)sulfonyl)-6-((4s,6s)-1-oxaspiro[3.3]heptan-6-yl)-2,6-diazaspiro[3.3]heptane]"
5,< 100,Cc1nc(C(C)(F)F)ccc1S(=O)(=O)N1CC2(CN(CC3(C)COC3)C2)C1 [Example 89]
6,< 100,Cc1nc(C(C)(F)F)ccc1S(=O)(=O)N1CC2(CN(CC3CCOC3)C2)C1 (centres unmarked) [Example 85]
7,< 100,"Cc1ccc(S(=O)(=O)N2CC3(C[C@H]4CC[C@@H](C3)N4CC(C)(C)O)C2)c(C)c1 [Example 62, 1-((1′R,5′S)-1-((2,4-dimethylphenyl)sulfonyl)-8′-azaspiro[azetidine-3,3′-bicyclo[3.2.1]octan]-8′-yl)-2-methylpropan-2-ol]"
8,< 100,Cc1nc(C(F)(F)F)ccc1S(=O)(=O)N1CC2(CN(CC3(C)COC3)C2)C1 [Example 141]
9,< 100,"O=S(=O)(c1ccc(C(F)F)nc1C1CC1)N1CC2(CN(C3CCOCC3)C2)C1 [Example 116, 2-((2-cyclopropyl-6-(difluoromethyl)pyridin-3-yl)sulfonyl)-6-(tetrahydro-2H-pyran-4-yl)-2,6-diazaspiro[3.3]heptane]"
10,< 100,Cc1cc(C(F)(F)F)ncc1S(=O)(=O)N1CCC2(CCN(C3CCOCC3)C2)CC1 [Example 38]
11,< 100,"Cc1cc(C(F)(F)F)nc(C)c1S(=O)(=O)N1CC2(CN(C3CCOCC3)C2)C1 [Example 100, 2-((2,4-dimethyl-6-(trifluoromethyl)pyridin-3-yl)sulfonyl)-6-(tetrahydro-2H-pyran-4-yl)-2,6-diazaspiro[3.3]heptane]"
12,< 100,"Cn1nc(C(F)(F)F)cc1S(=O)(=O)N1CC2(CN(CC3CCOC(C)(C)C3)C2)C1 (racemic) [Example 198, rac-2-((2,2-dimethyltetrahydro-2H-pyran-4-yl)methyl)-6-((1-methyl-3-(trifluoromethyl)-1H-pyrazol-5-yl)sulfonyl)-2,6-diazaspiro[3.3]heptane]"
13,< 100,Cc1cc(OC(F)(F)F)ccc1S(=O)(=O)N1CCC2(CCN(C3CCOCC3)C2)CC1 [Example 41]
14,< 100,"Cc1ccc(S(=O)(=O)N2CCC3(CCN(C4CCOCC4)C3)CC2)c(Cl)c1 [Example 36, 8-((2-Chloro-4-methylphenyl)sulfonyl)-2-(tetrahydro-2H-pyran-4-yl)-2,8-diazaspiro[4.5]decane]"
15,< 100,"Cc1ccc(S(=O)(=O)N2CCC3(CC2)CN(CC2(O)CCOCC2)C3)c(C)c1 [Example 34, 4-((7-((2,4-Dimethylphenyl)sulfonyl)-2,7-diazaspiro[3.5]nonan-2-yl)methyl)tetrahydro-2H-pyran-4-ol]"
16,< 100,Cc1nc(C(F)(F)F)ccc1S(=O)(=O)N1CC2(CN(CC3CCOCC3)C2)C1 [Example 152]
17,< 100,Cc1cc(C)c(S(=O)(=O)N2CC3(CCN(C4CCOCC4)C3)C2)cn1 [Example 53]
